According to US20230287003A1, “BCL6 INHIBITORS” (Cancer Research Technology Limited, priority 2018, published 2023):

Key:
[1] = target: endogenous BCL6 protein in SUDHL-4 cells (Homo sapiens (Human), UniProt P41182); assay: Immunofluorescence-based BCL6 degradation assay (SUDHL4); assay type: cell-based; details: 2 hours with compound, DC50 = concentration at which 50% of endogenous BCL6 protein is degraded
Experimental: DC50 values (compound concentration at which 50% of endogenous BCL6 protein is degraded) were determined in SUDHL-4 cells (American Type Culture Collection) in an immunofluorescence-based assay using an InCell2200 high content imaging system (GE Healthcare). Briefly, 40 μL of lymphoma suspension cells cultured in RPMI 1640-10% FBS (Sigma-Aldrich or PAN Biotech UK Ltd) were platted on fibronectin (Sigma catalogue F1141)-coated 384 well Cell Carrier Ultra plate (Perkin Elmer catalogue 6057300) at 1.2 104 cells/well. After 20 hours cell culture at 37° C./CO2 incubator, compounds were dispensed in the cell culture plate using ECHO550 acoustic dispenser (Labcyte, Inc.), as 8 point-concentration response (ranging from 5 nM to 10 μM) in 0.67% final DMSO concentration. Cells were incubated with compound for 2 hours at 37° C./CO2 incubator followed by fixation in 4.5% formaldehyde (37% formaldehyde solution, Sigma catalogue F8775) at room temperature for 15 min. After fixing, cells were washed in 1×TBS (Tris Buffer Saline) using a Power Washer 384 (Tecan Group Ltd). Blocking and cell permeabilisation were performed by incubating the fixed cells for 1 hour at room temperature in 1×TBS, 5% BSA, 1% Triton X100, followed by three washes on PW384 plate washer. Primary and secondary antibodies were prepared in 1×TBS, 1% BSA, 0.2% Triton X100. BCL6 expression was detected by incubating the cells for 1 h 30 with BCL6 rabbit polyclonal antibody (Sigma Catalogue HPA004899) at 1:250, 0.8 μg/ml, followed by 1 hour in chicken anti-Rabbit Alexa 488 conjugated antibody (Life Technology) at 1:500. After incubation in each antibody, cells were washes four times in 1×TBS-0.05% tween on PW384 plate washer. Cells were finally incubated for 60 min with nuclear staining RedDot2 dye (Biotium) at 0.5× the stock concentration in 1×TBS. BCL6 expression in the absence or presence of compound was detected on InCell2200 with 20× objective and quantified on InCell Analyser 3.7.2 workstation (GE Healthcare). The % response at each concentration was calculated by normalising BCL6 expression in the presence of compound to the appropriate high (DMSO) and low (DMSO with 7 μM of a control compound (5-((5-chloro-2-((3R,5S)-4,4-difluoro-3,5-dimethylpiperidin-1-yl)pyrimidin-4-yl)amino)-3-(3-hydroxy-3-methylbutyl)-1-methyl-1,3-dihydro-2H-benzo[d]imidazol-2-one)) controls.

[2] = target: human BCL6 BTB domain (Trx-6×His-BCL6) / BCOR-AF633 peptide (Homo sapiens (Human), UniProt P41182); assay: HTRF assay; assay type: binding; details: 1 nM Trx-6×His-BCL6, 300 nM BCOR-AF633 peptide, 2 hours incubation
[3] = target: BCL6-NCOR2(SMRT) corepressor protein-protein interaction (Homo sapiens (Human), UniProt P41182); assay: NanoBRET cell assay; assay type: cell-based; details: read-out: NanoBRET cell avg pIC50 (converted)
Text: At 20 hr post-transfection, cells were collected, washed with PBS, and exchanged into media containing phenol red-free OptiMEM+4% FBS (Life Technology).

SUDHL4 avg pDC50 [1]	HTRF avg pIC50 (1 nM) [2]	IC50 [3]	Molecule
6.87	6.24		C[C@@H]1CN(c2ncc(Cl)c(Nc3ccc4[nH]c(=O)c5c(c4c3)N[C@@H](C3CC3)CCO5)n2)C[C@H](C)C1(F)F [Example 5p, (R)-10-((5-chloro-2-((3S,5R)-4,4-difluoro-3,5-dimethylpiperidin-1-yl)pyrimidin-4-yl)amino)-2-cyclopropyl-1,2,3,4-tetrahydro-[1,4]oxazepino[2,3-c]quinolin-6(7H)-one]
6.54	6.61		C[C@@H]1CN(c2ncc(Cl)c(Nc3cnc4c(c3)c3c(c(=O)n4C)OCC[C@H](C4CC4)N3)n2)C[C@H](C)C1(F)F [Example 5t, (R)-10-((5-chloro-2-((3S,5R)-4,4-difluoro-3,5-dimethylpiperidin-1-yl)pyrimidin-4-yl)amino)-2-cyclopropyl-7-methyl-1,2,3,4-tetrahydro-[1,4]oxazepino[2,3-c][1,8]naphthyridin-6(7H)-one]
6.79	6.70		C[C@@H]1CN(c2ncc(Cl)c(Nc3ccc4c(c3)c3c(c(=O)n4C)OCC[C@H](C4CC4)N3)n2)C[C@H](C)C1(F)F [Example 5i, (R)-10-((5-chloro-2-((3S,5R)-4,4-difluoro-3,5-dimethylpiperidin-1-yl)pyrimidin-4-yl)amino)-2-cyclopropyl-7-methyl-1,2,3,4-tetrahydro-[1,4]oxazepino[2,3-c]quinolin-6(7H)-one]
6.63	6.07	6.17 µM	C[C@@H]1CN(c2ncc(Cl)c(Nc3ccc4c(c3)c3c(c(=O)n4C)OCC[C@H](C)N3)n2)C[C@H](C)C1(F)F [Example 5f, (S)-10-((5-chloro-2-((3S,5R)-4,4-difluoro-3,5-dimethylpiperidin-1-yl)pyrimidin-4-yl)amino)-2,7-dimethyl-1,2,3,4-tetrahydro-[1,4]oxazepino[2,3-c]quinolin-6(7H)-one]
6.50	6.55	13.5 µM	C[C@@H]1C[C@H](C)CN(c2ncc(Cl)c(Nc3ccc4c(c3)c3c(c(=O)n4C)C(=O)OC[C@H](C)N3)n2)C1 [Example 8g, (S)-10-((5-chloro-2-((3R,5S)-3,5-dimethylpiperidin-1-yl)pyrimidin-4-yl)amino)-2,7-dimethyl-2,3-dihydro-[1,4]oxazepino[6,5-c]quinoline-5,6(1H,7H)-dione]
6.22	6.18	5.25 µM	C[C@@H]1C[C@H](C)CN(c2ncc(Cl)c(Nc3ccc4c(c3)c3c(c(=O)n4C)OCC[C@H](C)N3)n2)C1 [Example 5e, (S)-10-((5-chloro-2-((3R,5S)-3,5-dimethylpiperidin-1-yl)pyrimidin-4-yl)amino)-2,7-dimethyl-1,2,3,4-tetrahydro-[1,4]oxazepino[2,3-c]quinolin-6(7H)-one]
6.78	6.80	17.8 µM	C[C@@H]1CN(c2ncc(Cl)c(Nc3ccc4c(c3)c3c(c(=O)n4C)C(=O)OC[C@H](C)N3)n2)C[C@H](C)C1(F)F [Example 8c, (S)-10-((5-chloro-2-((3S,5R)-4,4-difluoro-3,5-dimethylpiperidin-1-yl)pyrimidin-4-yl)amino)-2,7-dimethyl-2,3-dihydro-[1,4]oxazepino[6,5-c]quinoline-5,6(1H,7H)-dione]
6.84	6.93		Cn1c(=O)c2c(c3cc(Nc4nc(N5CCC(F)(F)CC5)ncc4Cl)ccc31)N[C@@H](C1CC1)CCO2 [Example 5m, (R)-10-((5-chloro-2-(4,4-difluoropiperidin-1-yl)pyrimidin-4-yl)amino)-2-cyclopropyl-7-methyl-1,2,3,4-tetrahydro-[1,4]oxazepino[2,3-c]quinolin-6(7H)-one]

Molecule	SUDHL4 avg pDC50 [1]	HTRF avg pIC50 (1 nM) [2]	IC50 [3]
(R)-10-((5-chloro-2-((3R,5S)-3-hydroxy-5- methylpiperidin-1-yl)pyrimidin-4-yl)amino)-2-cyclopropyl-7- methyl-1,2,3,4-tetrahydro-[1,4]oxazepino[2,3-c]quinolin-6(7H)-one or (R)-10-((5-chloro-2-((3S,5R)-3-hydroxy-5-methylpiperidin-1- yl)pyrimidin-4-yl)amino)-2-cyclopropyl-7-methyl-1,2,3,4-tetrahydro- [1,4]oxazepino[2,3-c]quinolin-6(7H)-one: formic acid (1:2) [Example 12c]	7.83	8.01	
